Assay results published in publication PMC11530689, “Anti colorectal cancer activity and in silico studies of novel pyridine nortopsentin analog as cyclin dependent kinase 6 inhibitor” (Scientific Reports, 2024).

Columns and labels:
Assay in all cases: NCI 60 cell line screen
Type in all cases: cell-based
786-0 = details: 786-0, Renal Cancer; single concentration 10^−5 M
Experimental: (§1) The cytotoxic activity of nortopsintin analogs (4a-4j) was determined by the national cancer institute (NCI, Bethesda, Maryland, USA) against 60 different cancer cell lines at a single concentration of (10^-5 M). For the determination of IC50 value, we used MTT assay kit (Sigma) according to the manufacturer's protocol. HCT-116 cells were seeded into a 96-well plate at a concentration of 20,000 cells/well. After 24 h, the media was aspirated and replaced with serum-free media containing serial dilutions of the 4i compound. […] The percentage of cytotoxicity was calculated using the following equation: % Cytotoxicity = [1 - ([…])] × 100.

A498 = details: A498, Renal Cancer; single concentration 10^−5 M
Experimental: as §1

A549/ATCC = details: Non-Small Cell Lung Cancer, single concentration 10^−5 M
Experimental: as §1

ACHN = details: Renal Cancer, single concentration 10^−5 M
Experimental: as §1

CAKI-1 = details: CAKI-1, Renal Cancer; single concentration 10^−5 M
Experimental: as §1

CCRF-CEM = details: Leukemia, single concentration 10^−5 M
Experimental: as §1

COLO205 = details: COLO205, Colon Cancer; single concentration 10^−5 M
Experimental: as §1

DU-145 = details: DU-145, Prostate Cancer; single concentration 10^−5 M
Experimental: as §1

HCC-2998 = details: HCC-2998, Colon Cancer; single concentration 10^−5 M
Experimental: as §1

K-562 = details: K-562, Leukemia; single concentration 10^−5 M
Experimental: as §1

KM12 = details: KM12, Colon Cancer; single concentration 10^−5 M
Experimental: as §1

MALME-3M = details: Melanoma, single concentration 10^−5 M
Experimental: as §1

MCF7 = details: MCF7, Breast Cancer; single concentration 10^−5 M
Experimental: as §1

MDA-MB-231/ATCC = details: Breast Cancer, single concentration 10^−5 M
Experimental: as §1

MDA-MB-468 = details: MDA-MB-468, Breast Cancer; single concentration 10^−5 M
Experimental: as §1

NCI-H226 = details: NCI-H226, Non-Small Cell Lung Cancer; single concentration 10^−5 M
Experimental: as §1

NCI-H23 = details: NCI-H23, Non-Small Cell Lung Cancer; single concentration 10^−5 M
Experimental: as §1

NCI-H522 = details: NCI-H522, Non-Small Cell Lung Cancer; single concentration 10^−5 M
Experimental: as §1

NCI/ADR-RES = details: Ovarian Cancer, single concentration 10^−5 M
Experimental: as §1

OVCAR-3 = details: OVCAR-3, Ovarian Cancer; single concentration 10^−5 M
Experimental: as §1

OVCAR-4 = details: OVCAR-4, Ovarian Cancer; single concentration 10^−5 M
Experimental: as §1

OVCAR-8 = details: OVCAR-8, Ovarian Cancer; single concentration 10^−5 M
Experimental: as §1

PC-3 = details: PC-3, Prostate Cancer; single concentration 10^−5 M
Experimental: as §1

RPMI-8226 = details: RPMI-8226, Leukemia; single concentration 10^−5 M
Experimental: as §1

RXF 393 = details: RXF 393, Renal Cancer; single concentration 10^−5 M
Experimental: as §1

SF-268 = details: SF-268, CNS Cancer; single concentration 10^−5 M
Experimental: as §1

SF-295 = details: SF-295, CNS Cancer; single concentration 10^−5 M
Experimental: as §1

SK-MEL-2 = details: SK-MEL-2, Melanoma; single concentration 10^−5 M
Experimental: as §1

SK-MEL-5 = details: SK-MEL-5, Melanoma; single concentration 10^−5 M
Experimental: as §1

SK-OV-3 = details: SK-OV-3, Ovarian Cancer; single concentration 10^−5 M
Experimental: as §1

SNB-19 = details: SNB-19, CNS Cancer; single concentration 10^−5 M
Experimental: as §1

SR = details: Leukemia, single concentration 10^−5 M
Experimental: as §1

SW-620 = details: SW-620, Colon Cancer; single concentration 10^−5 M
Experimental: as §1

T-47D = details: Breast Cancer, single concentration 10^−5 M
Experimental: as §1

TK-10 = details: TK-10, Renal Cancer; single concentration 10^−5 M
Experimental: as §1

U251 = details: U251, CNS Cancer; single concentration 10^−5 M
Experimental: as §1

UACC-62 = details: UACC-62, Melanoma; single concentration 10^−5 M
Experimental: as §1

Row | Structure (SMILES) | Growth % (786-0) [%] | Growth % (A498) [%] | Growth % (A549/ATCC) [%] | Growth % (ACHN) [%] | Growth % (CAKI-1) [%] | Growth % (COLO205) [%] | Growth % (DU-145) [%] | Growth % (HCC-2998) [%] | Growth % (K-562) [%] | Growth % (KM12) [%] | Growth % (MALME-3M) [%] | Growth % (MCF7) [%] | Growth % (MDA-MB-231/ATCC) [%] | Growth % (MDA-MB-468) [%] | Growth % (NCI-H226) [%] | Growth % (NCI-H23) [%] | Growth % (NCI-H522) [%] | Growth % (NCI/ADR-RES) [%] | Growth % (OVCAR-3) [%] | Growth % (OVCAR-4) [%] | further results
1 | N#Cc1c(-c2ccccc2)cc(-c2c[nH]c3ccccc23)nc1-c1c[nH]c2ccccc12 [4a] | 102.19 | 98.67 | 98.73 | 96.37 | 87.26 | 108.26 | 108.34 | 93.57 | 100.60 | 102.51 | 99.77 | 94.97 | 92.64 | 93.05 | 89.89 | 95.64 | 97.10 | 98.30 | 109.77 | 103.65 | Growth % (CCRF-CEM): 102.65%; Growth % (OVCAR-8): 98.73%; Growth % (PC-3): 92.44%; Growth % (RPMI-8226): 100.70%; Growth % (RXF 393): 94.99%; Growth % (SF-268): 96.15%; Growth % (SF-295): 96.36%; Growth % (SK-MEL-2): 97.65%; Growth % (SK-MEL-5): 99.18%; Growth % (SK-OV-3): 93.31%; Growth % (SNB-19): 97.62%; Growth % (SR): 96.68%; Growth % (SW-620): 101.78%; Growth % (T-47D): 86.69%; Growth % (TK-10): 123.79%; Growth % (U251): 94.26%; Growth % (UACC-62): 94.92%
2 | N#Cc1c(-c2ccc(Br)cc2)cc(-c2c[nH]c3ccccc23)nc1-c1c[nH]c2ccccc12 [4b] | 101.55 | 95.35 | 98.58 | 99.45 | 81.43 | 111.43 | 107.37 | 114.86 | 96.82 | 99.86 | 103.25 | 85.19 | 101.07 | 104.30 | 87.72 | 93.93 | 94.73 | 99.61 | 102.43 | 102.16 | Growth % (CCRF-CEM): 102.80%; Growth % (OVCAR-8): 96.50%; Growth % (PC-3): 93.93%; Growth % (RPMI-8226): 102.03%; Growth % (RXF 393): 109.74%; Growth % (SF-268): 100.28%; Growth % (SF-295): 99.37%; Growth % (SK-MEL-2): 95.21%; Growth % (SK-MEL-5): 97.46%; Growth % (SK-OV-3): 100.81%; Growth % (SNB-19): 98.35%; Growth % (SR): 94.65%; Growth % (SW-620): 105.18%; Growth % (T-47D): 85.37%; Growth % (TK-10): 146.78%; Growth % (U251): 94.64%; Growth % (UACC-62): 94.51%
3 | N#Cc1c(-c2ccc(Cl)cc2)cc(-c2c[nH]c3ccccc23)nc1-c1c[nH]c2ccccc12 [4c] | 102.38 | 97.38 | 100.29 | 101.81 | 87.84 | 106.5 | 108.08 | 117.80 | 97.57 | 102.73 | 107.80 | 89.99 | 97.80 | 102.95 | 96.15 | 89.48 | 96.57 | 98.53 | 107.09 | 106.75 | Growth % (CCRF-CEM): 101.97%; Growth % (OVCAR-8): 101.97%; Growth % (PC-3): 100.13%; Growth % (RPMI-8226): 102.27%; Growth % (RXF 393): 114.27%; Growth % (SF-268): 103.64%; Growth % (SF-295): 99.60%; Growth % (SK-MEL-2): 103.64%; Growth % (SK-MEL-5): 99.39%; Growth % (SK-OV-3): 91.24%; Growth % (SNB-19): 101.34%; Growth % (SR): 98.46%; Growth % (SW-620): 106.55%; Growth % (T-47D): 100.54%; Growth % (TK-10): 138.81%; Growth % (U251): 99.27%; Growth % (UACC-62): 89.22%
4 | N#Cc1c(-c2ccc(F)cc2)cc(-c2c[nH]c3ccccc23)nc1-c1c[nH]c2ccccc12 [4d] | 99.50 | 89.44 | 101.42 | 101.89 | 92.51 | 113.48 | 106.26 | 109.40 | 104.54 | 100.66 | 101.85 | 89.33 | 102.47 | 99.29 | 94.04 | 100.43 | 97.04 | 103.38 | 102.48 | 101.04 | Growth % (CCRF-CEM): 102.09%; Growth % (OVCAR-8): 100.20%; Growth % (PC-3): 103.05%; Growth % (RPMI-8226): 100.93%; Growth % (RXF 393): 111.59%; Growth % (SF-268): 101.12%; Growth % (SF-295): 102.68%; Growth % (SK-MEL-2): 96.13%; Growth % (SK-MEL-5): 100.33%; Growth % (SK-OV-3): 96.90%; Growth % (SNB-19): 102.08%; Growth % (SR): 89.11%; Growth % (SW-620): 106.63%; Growth % (T-47D): 89.92%; Growth % (TK-10): 127.59%; Growth % (U251): 94.85%; Growth % (UACC-62): 98.33%
5 | COc1cc(OC)cc(-c2cc(-c3c[nH]c4ccccc34)nc(-c3c[nH]c4ccccc34)c2C#N)c1 [4f] | 104.74 | 96.67 | 98.51 | 97.24 | 91.03 | 110.17 | 101.42 | 112.62 | 93.22 | 98.72 | 108.42 | 90.74 | 100.79 | 92.23 | 87.28 | 103.68 | 92.06 | 97.14 | 99.19 | 101.53 | Growth % (OVCAR-8): 102.00%; Growth % (PC-3): 93.60%; Growth % (RPMI-8226): 98.96%; Growth % (RXF 393): 107.63%; Growth % (SF-268): 99.97%; Growth % (SF-295): 101.07%; Growth % (SK-MEL-2): 88.37%; Growth % (SK-MEL-5): 98.48%; Growth % (SK-OV-3): 99.89%; Growth % (SNB-19): 96.57%; Growth % (SR): 81.27%; Growth % (SW-620): 102.51%; Growth % (T-47D): 98.31%; Growth % (TK-10): 124.45%; Growth % (U251): 99.96%; Growth % (UACC-62): 93.55%
